In patent publication US20240122879A1, “COMPOSITIONS AND METHODS FOR TREATING OCULAR CHEMICAL BURNS” (OHIO STATE INNOVATION FOUNDATION, priority 2022, published 2024):
“Also recorded” adds a separate entry of the source.

Tests used:
mCECs = experiment: Scratch wound assay of mCECs cultured with dissected corneas from treated mice; type: cell-based, mouse; conditions: FIG. 3A, 3B
Experimental: The potential function of neutrophil pyroptosis in corneal wound healing was next tested. Mouse corneas were first dissected with or without injury from WT, GsdmD^−/−, Gr-1 treated, and disulfiram treated mice, and cultured the dissected corneas with mCECs. A scratch wound was then created in the mCEC.
For disulfiram treatment of mice, disulfiram was dissolved in sesame oil (12.5 mg/ml). Mice were injected 16 hours before injury through intraperitoneal injection (50 mg/kg); injection continued daily for the duration of the experiment. For Gr-1 antibody treatment, mice were injected 16 hours and immediately before injury through intraperitoneal injection (100 μg/mouse).
To induce cellular migration, an in vitro scratch test was performed using mCECs. Cells were treated with dissected corneas or cytokines when they reached confluence, were subsequently scratched with a micropipette tip, and incubated for up to 12 hrs. Images were taken at 0, 3, 6, and 9 hours after the initial scratch. Images of wound closure were quantified by using ImageJ software.

injured corneas [1] = experiment: Alkali induced corneal injury: corneal neovascularization, CD31 staining of corneal flat mount; type: in vivo, mice; conditions: disulfiram 50 mg/kg i.p. daily, FIG. 7G, 7H
Experimental: All animal care and usage followed NIH guidelines and were in accordance with the ARVO Statement for the Use of Animals in Ophthalmic and Vision Research. Rodent studies received IACUC approval by The Ohio State University. For all corneal wound healing models, injury was induced under anesthesia, all animals received topical antibiotics, and topical and systemic analgesics were provided for at least 72 h. To induce corneal injury, a 1.5 mm filter paper soaked in 1N NaOH was applied to the axial cornea for 30 seconds. The filter paper was then removed and the cornea rinsed with PBS for two minutes. After the cornea was thoroughly rinsed, fluorescein stain was applied to the cornea to verify corneal ulceration. For disulfiram treatment of mice, disulfiram was dissolved in sesame oil (12.5 mg/ml). Mice were injected 16 hours before injury through intraperitoneal injection (50 mg/kg); injection continued daily for the duration of the experiment. For Gr-1 antibody treatment, mice were injected 16 hours and immediately before injury through intraperitoneal injection (100 μg/mouse). Dissected eye from mice were fixed in 4% PFA for 24 to 48 hours at 4° C. […]

Caspase-1 = experiment: Western blot: Caspase-1 cleavage after disulfiram treatment; type: in vivo, mice; conditions: FIG. 17
Source text: (§1) While neutrophil pyroptosis plays a detrimental role during corneal wound healing, the initial neutrophil infiltration is critical for removing dead corneal cells and debris, which is part of the healing process. Thus, complete depletion of neutrophil may not be the ideal option to promote normal corneal healing. Disulfiram is an FDA approved drug, which has been recently been identified as a pyroptosis inhibitor (Hu, et al. Nat Immunol. 2020 21(7):736-745). Thus, tested was whether application of disulfiram could be an effective means to promote corneal wound healing. […] To confirm treatment of disulfiram could inhibit post-injury pyroptosis, Western blot analysis was performed on corneal samples before and after injury.
(§2) All animal care and usage followed NIH guidelines and were in accordance with the ARVO Statement for the Use of Animals in Ophthalmic and Vision Research. Rodent studies received IACUC approval by The Ohio State University. For all corneal wound healing models, injury was induced under anesthesia, all animals received topical antibiotics, and topical and systemic analgesics were provided for at least 72 h. To induce corneal injury, a 1.5 mm filter paper soaked in 1N NaOH was applied to the axial cornea for 30 seconds. The filter paper was then removed and the cornea rinsed with PBS for two minutes. […]

[2] = tested on: IL-1β, caspase 1 and GsdmD; conditions: discussion statement following citation of Hu et al.; cited from earlier work
Caspase-3 = experiment: Western blot of Caspase-3 cleavage in isolated primary mouse neutrophils; type: cell-based; conditions: primary neutrophils from mouse bone marrow; FIG. 12
Source text: (§3) To further confirm neutrophils undergo pyrotposis, primary neutrophils were isolated and purified from mouse bone marrow. Isolated neutrophils underwent pyroptosis quickly after isolation followed by activation of apoptosis, as evidenced by cleaved caspase-3 (FIG. 11).
(§4) Bone marrow samples were obtained as previously described. Briefly, lower limbs were collected from euthanized mice. All attached soft tissue was removed to fully expose the femurs and tibias. An 18G needle was inserted into hollow of the bone and pulse flush buffer (2% FBS in PBS) used to flush marrow into a 15 ml sterile centrifuge tube. The solution was then filtered with a 70-100 μm filter. The solution was centrifuged at […], and the bone marrow cells were resuspended in red blood cell lysis buffer for 5 minutes.
(§5) Separation of neutrophils using density gradient centrifugation was performed as previously described (Swamydas, et al. J Vis Exp. 2013 (77):e50586). The bone marrow cells were resuspended in 1 ml of ice-cold sterile PBS. Using a 15 mL conical tube, 3 ml of Histopaque 1119 was first added followed by an overlay of 3 mL of Histopaque 1077. The bone marrow cell suspension was then overlaid on the Histopaque 1077. The samples were centrifuged for 30 min at 2,000 rpm at 25° C. Neutrophils were then at the interface of the Histopaque 1119 and Histopaque 1077 layers. […]

injured corneas [3] = experiment: Alkali induced corneal injury: re-epithelialization / wound healing (fluorescein); type: in vivo, mice; conditions: disulfiram 50 mg/kg i.p. daily from 16 h before injury, antibodies before wounding, FIG. 7C-7F
Experimental: All animal care and usage followed NIH guidelines and were in accordance with the ARVO Statement for the Use of Animals in Ophthalmic and Vision Research. Rodent studies received IACUC approval by The Ohio State University. For all corneal wound healing models, injury was induced under anesthesia, all animals received topical antibiotics, and topical and systemic analgesics were provided for at least 72 h. To induce corneal injury, a 1.5 mm filter paper soaked in 1N NaOH was applied to the axial cornea for 30 seconds. The filter paper was then removed and the cornea rinsed with PBS for two minutes. After the cornea was thoroughly rinsed, fluorescein stain was applied to the cornea to verify corneal ulceration. For disulfiram treatment of mice, disulfiram was dissolved in sesame oil (12.5 mg/ml). Mice were injected 16 hours before injury through intraperitoneal injection (50 mg/kg); injection continued daily for the duration of the experiment. For Gr-1 antibody treatment, mice were injected 16 hours and immediately before injury through intraperitoneal injection (100 μg/mouse).

GsdmD [4] = experiment: Western blot of corneal samples after alkali injury: GsdmD cleavage / pyroptosis; type: in vivo, mice; conditions: FIG. 2C
Source text: as §1, §2

GsdmD [5] = experiment: Western blot of GsdmD cleavage in isolated primary mouse neutrophils; type: cell-based; conditions: primary neutrophils from mouse bone marrow; FIG. 12
Source text: as §3, §4, §5

CCN(CC)C(=S)SSC(=S)N(CC)CC [Disulfiram, Tetraethylthiuram disulfide]
inhibitory effects of injured corneas on mCECs migration (scratch wound closure) (mCECs): greatly reduced | corneal neovascularization (CNV), CD31 staining (injured corneas [1]): significantly reduced; also recorded: significantly reduce neovascularization | cleavage of Caspase-1 (Caspase-1): suppress cleavage | cleavage of caspase 1 and GsdmD [2]: inhibit the cleavage of caspase 1 and GsdmD | release of mature IL-1β [2]: inhibit the release of mature IL-1β | Caspase-3 cleavage in isolated neutrophils (Caspase-3): not cleavage of Caspase-3 | corneal wound healing / re-epithelialization (injured corneas [3]): dramatically accelerated wound healing; also recorded: improved healing outcomes; also recorded: promote the re-epithelialization | cleavage of GsdmD (GsdmD-N expression) (GsdmD [4]; FIG. 17 (disulfiram), 24 hours after injury (Gr-1 antibody)): suppress cleavage | activation of pyroptosis after corneal injury (GsdmD [4]; corneal samples after alkali injury, FIG. 17): effectively inhibited pyroptosis | GsdmD cleavage in isolated neutrophils (GsdmD [5]): inhibits cleavage of GsdmD; also recorded: significantly inhibit
